Assays:
[1] = absolute recovery over mixed-bed multilayer solid-phase extraction; higher = better recovery; conditions: enrichment method: SPE
In short: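 Elution from a three-layer mixed-bed cartridge used basic followed by acidic ethyl acetate/methanol, after loading either 1000 mL of unfiltered nanopure water or 100–250 mL of wastewater that had been set to pH 6.5 and glass-fibre filtered. Standards went in before or after extraction, or were left out, at 200 ng/L (water) or 1000 ng/L (wastewater), with class exceptions. Internal standards were added afterwards, and measurement was by liquid chromatography with high-resolution tandem mass spectrometry in both ionisation modes. For absolute recovery, background-corrected response ratios of pre-spiked samples were compared with those of post-spiked samples and averaged over at least two replicates.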

[2] = LC retention time (Atlantis T3, 5-95% MeOH gradient, 0.1% formic acid); higher = more retained / less polar
In short: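 Retention times refer to reference standards measured by liquid chromatography with high-resolution tandem mass spectrometry. Separation was on an Atlantis T3 C18 column (3 × 150 mm, 3 μm) at 0.3 mL/min with a 5 to 95% methanol gradient over 17.5 min, both solvents carrying 0.1% formic acid. Positive and negative electrospray were run separately on a QExactive Plus, and TraceFinder peak integration (5 ppm tolerance, at least three points per peak) was reviewed by hand.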

[3] = absolute recovery over vacuum-assisted evaporative concentration; higher = better recovery; conditions: enrichment method: VEC
In short: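 After spiking with standards before concentration, after concentration or not at all, at 1000 ng/L for wastewater or 200 ng/L for nanopure and surface water with class- and compound-specific adjustments, samples of 6 mL influent, 15 mL effluent and 60 mL surface or nanopure water were evaporated at 55 °C and 20 mbar to about 0.3 mL. They were brought to 0.4 mL, centrifuged, given internal standards and analysed by LC-HRMS/MS. Absolute recovery, (response ratio pre − unspiked)/(post − unspiked) × 100, used averages of ≥ 2 replicates.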

SMILES	absolute recovery ([1]; nanopure water) [%]	absolute recovery ([1]; surface water) [%]	absolute recovery ([1]; wastewater effluent) [%]	absolute recovery ([1]; wastewater influent) [%]	LC retention time [2] [min]	absolute recovery ([3]; wastewater effluent) [%]	absolute recovery ([3]; wastewater influent) [%]
C[NH2+]C1(c2ccccc2Cl)CCCCC1=O (configuration not stated) [Ketamin]	83.7	82.3	82.9	90.4	11.7	101	105
CCS(=O)(=O)c1nc2ccccn2c1S(=O)(=O)[N-]C(=O)Nc1nc(OC)cc(OC)n1 [Sulfosulfuron]	101	94.4	94.6	102	19.4	108	98.9
[NH3+]CC1(CC(=O)[O-])CCCCC1 [Gabapentin]	20.3				10.4	99.5	98.3
COc1ccc(C(=CC(=O)N2CCOCC2)c2ccc(Cl)cc2)cc1OC [Dimethomorph]	98.4	81.4	81.4	91.4	19.5	116	95.7
CC[NH+]1CCCC1CNC(=O)c1cc(S(=O)(=O)CC)c(N)cc1OC (configuration not stated) [Amisulprid]	93.1	94.8	93.4	92.7	10.4	106	102
Cn1sc(Cl)cc1=O [5-Chloro-2-methyl-4-isothiazolin-3-on (=CMI)]	85.1	56.7	66.5		12.4	65.2	
Cc1nc(N(C)C)nc(OC(=O)N(C)C)c1C [Pirimicarb]	99.4	94.3	93.5	94.1	14.1	102	98.7
NC1=[NH+]CCN1Cc1ccc(Cl)nc1 [Imidacloprid-desnitro]	113	110	104	106	8.99	107	103
c1ccc(CN2CC[NH2+]CC2)cc1 [1-Benzylpiperazin]	58.2	60.9	56.2	72.5	6.45	109	140
CCOC(=O)OC1=C(c2cc(C)ccc2C)C(=O)NC12CCC(OC)CC2 (configuration not stated) [Spirotetramat]	12	16.9	29.9	27	20	61.7	54.9
C[NH2+]C(C)Cc1ccccc1 (configuration not stated) [Methamphetamin]	92.5	86.6	89.3	92.5	10.6	100	91.3
Cc1cc(C)nc(NC(=O)[N-]S(=O)(=O)c2ccccc2C(=O)OC2COC2)n1 [Oxasulfuron]	107	93.3	93	83.6	16.5	111	103
COC(=O)C1C(OC(=O)c2ccccc2)CC2CCC1[NH+]2C (configuration not stated) [Cocaine]	97.2	96.4	93.8	94.5	12.2	71.1	62.2
CC(C)Oc1cccc(NC(=O)c2ccccc2C(F)(F)F)c1 [Flutolanil]	104	104	95.7	98	19.5	94	103
CC(=O)Nc1c(I)c(C(=O)[O-])c(I)c(C(=O)NCCO)c1I [Ioxitalamic-acid]	59.6	65.7	76	61.4	9.16	103	101
CCOP(=O)(OCC)OC(=CCl)c1ccc(Cl)cc1Cl [Chlorfenvinphos]	85.1	86.4	94.3	86.9	20.9	112	104
COC(=O)[N-]S(=O)(=O)c1ccc(N)cc1 [Asulam]	101	34.2	42.6	43.9	10.5	95.8	88.4
CN1C(=O)CN=C(c2ccccc2)c2cc(Cl)ccc21 [Diazepam]	97.6	94.9	93.6	95.7	19.5	105	99.2
Nc1nnc(-c2cccc(Cl)c2Cl)c(N)n1 [Lamotrigin]	96.2	96.6	91.1	96.7	12.8	104	97.7
Clc1ccccc1C[NH+]1CCc2sccc2C1 [Ticlopidin]	83.9	85.9	84.5	81.1	12.7	51	45.4
CCOCN(C(=O)CCl)c1c(C)cccc1CC [Acetochlor B]	94	93.3	91.1	91.6	20.4	83.4	76.8
Cc1c(N(C)C)c(=O)n(-c2ccccc2)n1C [4-Dimethylaminoantipyrin (=Aminopyrin)]	72.8	79.5	77	88.2	9.33	89.8	92.9
CCc1ccc(CCOc2ccc(CC3SC(=O)[N-]C3=O)cc2)nc1 (configuration not stated) [Pioglitazone]	93.3	98.1	104	90.7	14.3	107	104
CCCOC(=O)NCCC[NH+](C)C [Propamocarb]	83	83.9	84.1	86.5	8.99	105	105
CC(C)N1C(=O)N(c2ccccc2)CSC1=NC(C)(C)C [Buprofezin]	67.9	86.2	87.5	118	22	75.3	100
COc1cc(OC)nc(NC(=O)[N-]S(=O)(=O)c2ncccc2C(=O)N(C)C)n1 [Nicosulfuron]	95.8	97.3	96.2	95.7	16.9	103	102
CC(=O)Nc1ccc(S(=O)(=O)[N-]c2nc(C)cc(C)n2)cc1 [N4-Acetyl-Sulfamethazin]	86.9	91	93.2	93.2	13.1	108	97.1
CC(C)CC(C[NH3+])CC(=O)[O-] (racemic) [Pregabalin-rac]	16.3	2	2.6		10.3	108	101
CN(C)C(=O)Nc1ccc(-n2nc(C(C)(C)C)oc2=O)c(Cl)c1 [Dimefuron]	103	98.3	100	92	18.9	108	103

The remaining lines, values ahead:

absolute recovery ([1]; nanopure water) [%]	absolute recovery ([1]; surface water) [%]	absolute recovery ([1]; wastewater effluent) [%]	absolute recovery ([1]; wastewater influent) [%]	LC retention time [2] [min]	absolute recovery ([3]; wastewater effluent) [%]	absolute recovery ([3]; wastewater influent) [%]	SMILES
69.6	89.6	97.8	77.9	23.2	143	97.7	O=C([O-])C=C(F)C(F)(F)C(F)(F)C(F)(F)C(F)(F)C(F)(F)F [6-2-FTUCA]
88.6	83.9	83.3	84.7	17.9	93.4	71.9	CCCCOc1ccc(CC(=O)NO)cc1 [Bufexamac]
50.1	69.3	78.3	83.3	16.9	113		CCC1OC(=O)C(C)C(OC2CC(C)(OC)C(O)C(C)O2)C(C)C(OC2OC(C)CC([NH+](C)C)C2O)C(C)(O)CC(C)C(=O)C(C)C(O)C1(C)O (configuration not stated) [Erythromycin]
100	111	100	77.4	20.7	51.4	56.6	COc1ccc(C(=O)c2ccccc2)c(O)c1 [Benzophenon-3 (=2-Hydroxy-4-methoxybenzophenon)]
93.1	92.3	84.4	88.4	18.9	106	101	CC1CC2C(C(O)CC3(C)C2CCC3(O)C(=O)CO)C2(C)C=CC(=O)C=C12 (configuration not stated) [Methylprednisolon]
95.7			97.5	15.4	102	100	Cc1ccc2[nH]nnc2c1 [5-Methyl-Benzotriazol]
78.4	74.7	80	89.6	11.6	106	103	Cc1cccc(C)c1NC(=O)C1CCCC[NH+]1C (configuration not stated) [Mepivacaine]
93.2	96.3	96	99.6	13.2	99.1	97	COc1cc2[nH+]c(N(C)CCCNC(=O)C3CCCO3)nc(N)c2cc1OC (configuration not stated) [Alfuzosin]
96.3	93.3	94.1	98.9	18.3	105	101	CNC(=O)Nc1ccc(C(C)C)cc1 [Isoproturon-monodemethyl (=1-(4-Isoprophenyl)-3-methylurea)]
93.2	92.8	94.6	79.7	14.6	105	107	COc1ccc(C(C[N+](C)(C)[O-])C2(O)CCCCC2)cc1 (configuration not stated) [Venlafaxine-N-Oxide]
69.5	39.2	55.8	74.5	13.2	90.5	96.4	[NH3+]C(Cc1cc(I)c(O)c(I)c1)C(=O)[O-] [3-5-Diiodo-L-tyrosine]
102				10.7	149		CC(=O)N(CC(O)CN(C(C)=O)c1c(I)c(C(=O)NCC(O)CO)c(I)c(C(=O)NCC(O)CO)c1I)c1c(I)c(C(=O)NCC(O)CO)c(I)c(C(=O)NCC(O)CO)c1I (configuration not stated) [Iodixanol]
86.5	90	85.3	86.5	11.3	102	92.6	CC[NH+](CC)CCNC(=O)c1cc(Cl)c(N)cc1OC [Metoclopramid]
109	34.2	90.9	100	6.89	94.9	141	Cc1cncc(C(=O)[O-])c1 [5-Methylpyridine-3-carboxylic-acid]
85.5	71.8	81.5	89.8	20.1	97.4	134	CON=C(C(=O)[O-])c1ccccc1COc1ccccc1C [Kresoxim-methyl-acid]
96.8	88	92.8	87.9	18.2	109	107	COCCN(C(=O)C(=O)[O-])c1c(C)cccc1C [Dimethachlor-OXA]
74.9	75.6	74.8	95.2	17.5	99.8	54.6	CC12CCC(=O)C=C1CCC1C2C(=O)CC2(C)C1CCC2(O)C(=O)CO (configuration not stated) [Cortison]
65.9	56.4	64.9	72.2	15.8	66.4	77.5	CCC1OC(=O)CC(O)C(C)C(OC2OC(C)C(OC3CC(C)(O)C(O)C(C)O3)C([NH+](C)C)C2O)C(CC=O)CC(C)C(=O)C=CC(C)=CC1COC1OC(C)C(O)C(OC)C1OC (configuration not stated) [Tylosin]
59.5	65.4	65.1	81.3	10.8	106	109	C[NH2+]CCC(c1ccccc1)c1ccccn1 (configuration not stated) [N-desmethylpheniramine]
40.5	19.3	28.1	53.3	15.8	38.8	45.5	COc1cccc2c1C(=O)c1c(O)c3c(c(O)c1C2=O)CC(O)(C(=O)CO)CC3OC1CC([NH3+])C(O)C(C)O1 (configuration not stated) [Doxorubicin]
84.4	84.7	82.7	83.7	16.4	87.8	78.5	NC(=O)N1c2ccccc2CC(=O)c2ccccc21 [Oxcarbazepin]

Reference: the supplement of paper PMC6470124
